Data taken from US20080207593A1, “Antihistamine Combination” (Collegium Pharmaceutical, Inc., priority 2007, published 2008).
Structures can show the parent of a compound that is named as a salt.

Assays:
[1] = system: seasonal allergic rhinitis nasal symptoms (rhinorrhea, nasal itching, sneezing); assay: Proof of concept clinical study: Total Nasal Symptom Score (TNSS); assay type: in vivo, human; settings: TNSS > 4.7 subgroup
Experimental: An open-label, placebo-controlled parallel-group comparison study was conducted. The protocol used was a 1 week run-in period, with daily placebo (PLC) for all groups, and a second 2 week period for treatment. Study participants were randomized to receive at bedtime (10 pm) during the treatment period, one of the following: PLC only; Immediate Release LOR 10 mg, or Immediate Release CHL 4 mg/Immediate Release LOR 10 mg. Commercially available IR tablets of CHL and LOR were packaged into capsules and used in this study. Participants filled out patient diaries in the morning (8 am) and evening (10 pm, prior to dosing). Reflective and Instantaneous TNSSs were recorded daily. Pittsburgh Sleep Quality Index (PSQI) was scored at the end of the study.
Each symptom (rhinorrhea, nasal itching, sneezing) was scored on the following scale (Max Score=9):
0=absent symptoms (no sign/symptom evident);
1=mild symptoms (signs or symptoms clearly present but with minimal awareness, and easily tolerated);
2=moderate symptoms (definite awareness of signs or symptoms that are bothersome but tolerable); or
3=Severe symptoms (signs or symptoms that are hard to tolerate and cause interference with activities of daily living and/or sleeping).
At each time point (at 8 AM and 10 PM), symptoms were scored for Instantaneous and Reflective scores.
Inclusion criteria: male/female 18-60 years, history of seasonal allergic rhinitis for at least two years, sensitivity to ragweed or locally prevalent allergen, immunotherapy at stable dose, AM Reflective TNSS=3 on at least 5 out of 7 consecutive days during run-in.
Exclusion criteria: subjects with asthma other than mild intermittent asthma, use of antihistamines, other than study medication; use of systemic or topical corticosteroids, use of decongestants or antihistamines within 3 days of Visit 1, nasal cromolyn within 2 weeks of Visit 1, nasal or systemic corticosteroids within 28 days of Visit 1, loratadine within 10 days of Visit 1, history of sleep abnormalities, sinusitis, use of medications causing drowsiness/interfere with sleep, subjects with a known history of alcohol or drug abuse, and other standard exclusions.
2.3 Study Sites. The Study was conducted in Newport News, Va. (20 subjects), Richmond, Va. (20 subjects), New Braunfels, Tex. (25 subjects), San Antonio, Tex. (9 subjects).

allergic rhinitis = settings: cited from earlier work
[2] = system: seasonal allergic rhinitis; settings: cited from earlier work
[3] = system: seasonal allergic rhinitis; settings: 4 mg three times per day (12 mg daily) for seven days; cited from earlier work
[4] = Baseline (1 week placebo run-in)
[5] = Change from Baseline to End-of-Treatment
[6] = End-of-Treatment, bedtime dosing

CCOC(=O)N1CCC(=C2c3ccc(Cl)cc3CCc3cccnc32)CC1 [Loratadine]
AM TNSS Instantaneous Score, Max [1, 4]: 7.71
AM TNSS Instantaneous Score, Mean [1, 4]: 5.58
AM TNSS Instantaneous Score, Median [1, 4]: 5.43
AM TNSS Instantaneous Score, Min [1, 4]: 3.71
AM TNSS Reflective Score, Max [1, 4]: 8.14
AM TNSS Reflective Score, Mean [1, 4]: 5.91
AM TNSS Reflective Score, Median [1, 4]: 5.07
AM TNSS Reflective Score, Min [1, 4]: 5.00
PM TNSS Instantaneous Score, Max [1, 4]: 8.83
PM TNSS Instantaneous Score, Mean [1, 4]: 5.70
PM TNSS Instantaneous Score, Median [1, 4]: 5.21
PM TNSS Instantaneous Score, Min [1, 4]: 3.86
PM TNSS Reflective Score, Max [1, 4]: 8.50
PM TNSS Reflective Score, Mean [1, 4]: 6.10
PM TNSS Reflective Score, Median [1, 4]: 5.59
PM TNSS Reflective Score, Min [1, 4]: 4.57
PM TNSS Reflective Score, Change, Max [1, 5]: 1.21
PM TNSS Reflective Score, Change, Mean [1, 5]: −0.92
PM TNSS Reflective Score, Change, Median [1, 5]: −0.21
PM TNSS Reflective Score, Change, Min [1, 5]: −3.45
AM TNSS Instantaneous Score, Change, Max ([1]; Change from Baseline to Week 2): 1.21
AM TNSS Instantaneous Score, Change, Mean ([1]; Change from Baseline to Week 2): −0.74
AM TNSS Instantaneous Score, Change, Median ([1]; Change from Baseline to Week 2): −0.83
AM TNSS Instantaneous Score, Change, Min ([1]; Change from Baseline to Week 2): −2.62
AM TNSS Reflective Score, Change, Max ([1]; Change from Baseline to Week 2): 1.29
AM TNSS Reflective Score, Change, Mean ([1]; Change from Baseline to Week 2): −0.82
AM TNSS Reflective Score, Change, Median ([1]; Change from Baseline to Week 2): −0.52
AM TNSS Reflective Score, Change, Min ([1]; Change from Baseline to Week 2): −2.79
PM TNSS Instantaneous Score, Change, Max ([1]; Change from Baseline to Week 2): 1.00
PM TNSS Instantaneous Score, Change, Mean ([1]; Change from Baseline to Week 2): −0.81
PM TNSS Instantaneous Score, Change, Median ([1]; Change from Baseline to Week 2): −0.21
PM TNSS Instantaneous Score, Change, Min ([1]; Change from Baseline to Week 2): −3.45
PM TNSS Reflective Score, Max [1, 6]: 7.71
PM TNSS Reflective Score, Mean [1, 6]: 5.18
PM TNSS Reflective Score, Median [1, 6]: 5.29
PM TNSS Reflective Score, Min [1, 6]: 2.14
AM TNSS Instantaneous Score, Max ([1]; Week 2, bedtime dosing): 7.36
AM TNSS Instantaneous Score, Mean ([1]; Week 2, bedtime dosing): 4.83
AM TNSS Instantaneous Score, Median ([1]; Week 2, bedtime dosing): 5.16
AM TNSS Instantaneous Score, Min ([1]; Week 2, bedtime dosing): 2.14
AM TNSS Reflective Score, Max ([1]; Week 2, bedtime dosing): 7.43
AM TNSS Reflective Score, Mean ([1]; Week 2, bedtime dosing): 5.08
AM TNSS Reflective Score, Median ([1]; Week 2, bedtime dosing): 5.13
AM TNSS Reflective Score, Min ([1]; Week 2, bedtime dosing): 2.21
PM TNSS Instantaneous Score, Max ([1]; Week 2, bedtime dosing): 7.21
PM TNSS Instantaneous Score, Mean ([1]; Week 2, bedtime dosing): 4.89
PM TNSS Instantaneous Score, Median ([1]; Week 2, bedtime dosing): 5.32
PM TNSS Instantaneous Score, Min ([1]; Week 2, bedtime dosing): 2.15
24 hour efficacy (allergic rhinitis; 10 mg once a day): lack of 24 hour efficacy
patients with significant sedation (allergic rhinitis; loratadine 40 mg once daily): 34.3%
nocturnal symptoms ([2]; 10 mg QD for four weeks): did not show any improvement
symptom scores ([2]; 10 mg QD, first two week period and four week study overall): statistically significant reduction

CN(C)CCC(c1ccc(Cl)cc1)c1ccccn1 (stereo not drawn) [chlorpheniramine, Chlorpheniramine maleate]
patients reporting moderate or complete relief [3]: 60%
patients reporting sedation [3]: 19%
